Test results published in patent publication US12258299B2, “Permanent eco-fertilizer against fruit physiological disorders and pests” (S.A. Reverté Productos Minerales, priority 2019, dated 2025).

What was measured:
Golden apple pulp = experiment: Foliar fertilization of the pulp of Golden apples; format: in vivo; conditions: 30 kg/Ha, treatment last week of April
Method: A first experiment was carried out to measure the foliar fertilization of Golden apples. The treatment was carried out the last week of April using a 3% weight suspension of the fertilizer as claimed in water (30 kg/1000 l water/Ha).

[1] = Salt index of the fertilizer; format: physicochemical

[Ca+2].[Cl-].[Cl-] [CaCl2, calcium chloride]
Calcium (Golden apple pulp): 24 ppm
salt index [1]: 87
